Columns and labels:
Format in all cases: in vivo, C57BL6 mice
[1] = Body weight of mice pre-treated with compositions, DSS-induced colitis
Description: In this experiment, C57BL6 mice were employed for the following reasons. The experimental animals are widely used throughout the world and are evaluated as being suitable for validity assays. In addition, because a great amount of fundamental test data on various disease models of the animals has been accumulated, the data can be utilized in analyzing and assessing test results. When purchased from OrientBio Inc. the experimental animals weighed 18 g±20%. They were bred under a light intensity of 150˜300 Lux in the controlled condition of 12:12-h light-dark cycles, with at least 10 ventilation rounds per hour.
(§1) For use in testing therapeutic effects of the agents of Examples, Comparative Examples, and Control Examples, the mice (G1 to G7) were fed with a 2.5 wt % aqueous dextran sodium sulfate (DSS) solution to induce inflammatory bowel disease therein.
Weights are expressed as mean±standard deviation.
From Jan. 12, 2012, the mice were allowed to drink an aqueous DSS 2.5 wt % solution for 7 days. DSS-induced diarrhea or hematochezia caused mice in groups G2 to G7 to lose weight, as compared at the point of DSS treatment.

[2] = tested on: dextran sodium sulfate (DSS)-induced colitis mouse models; assay: Disease Activity Index (DAI) score, DSS-induced colitis
Text: as §1
(§2) At the end of the test, Disease Activity Index (DAI) Scores were made in consideration of the degree of hematochezia and diarrhea, and are depicted in FIG. 3. In the graph, # represents significance (p<0.0001) compared to the normal (G1), and * represents significance (p<0.05), compared to the colitis animal model.

[3] = tested on: dextran sodium sulfate (DSS)-induced colitis mouse models; assay: Colon length from cecum to end of colon, DSS-induced colitis; settings: G3 to G6 (12.5-100 mg/kg) compared to Comparative Example, with statistical significance, FIG. 4
Text: as §1
After 7 days of DSS drinking, the mice were sacrificed in an ether anesthetized condition, and the colon was excised.
as §2

[4] = tested on: dextran sodium sulfate (DSS)-induced colitis mouse models; assay: Pathological observation of colon by H&E staining, total pathologic score
Description: as §1
Colon specimens taken were fixed in a 10% formalin solution and stained with hematoxylin & eosin (H&E stain), and their images are given in FIG. 5. Further, they were evaluated through a blind test under the criteria of a total of six histopathological opinions on inflammation (inflammation, follicle aggregation, oedema, erosion/ulceration, crypt loss, and infiltration of mono- and polymorphonuclear cells), and scored. Total pathologic scores obtained by summing up scores for each items and for the six opinions are depicted in FIG. 6.

IL-1β = assay: Level of inflammatory cytokine IL-1β; settings: G3 to G6 (12.5-100 mg/kg), FIG. 7, equivalency to control G7
Description: as §1
(§3) Levels of IL-1β IL-6, IL-12, and TNF-α, which are representative inflammation-inducing cytokines, were measured. […] The observation results are depicted in […].

IL-6 = assay: Level of inflammatory cytokine IL-6; settings: G3 to G6 (12.5-100 mg/kg), FIG. 8, equivalency to control G7
Description: as §1, §3

TNF-α = assay: Level of inflammatory cytokine TNF-α; settings: G3 to G6 (12.5-100 mg/kg), FIG. 9, equivalency to control G7
Description: as §1, §3

IL-12 = assay: Level of inflammatory cytokine IL-12; settings: G3 to G6 (12.5-100 mg/kg), FIG. 10, equivalency to control G7
Description: as §1, §3

Malondialdehyde (MDA) = assay: Anti-oxidant activity: malondialdehyde (MDA), lipid peroxidation
Text: as §1
Malondialdehyde (MDA), accounting for the degree of lipid peroxidation, a representative marker of oxidation stress, was quantified.

[5] = tested on: total antioxidant concentration; assay: Anti-oxidant activity: total antioxidant concentrations in tissues; settings: G3 (12.5 mg/kg) compared to the DSS-treated group
Text: as §1
Its amount was discovered to decrease at a low concentration of S-allyl-L-cysteine as in G3 and G4, with statistical significance.

COX-2 = COX-2 expression in colon tissue by immunofluorescence
Description: as §1
The immunofluorescence of COX-2 was performed on paraffin unstained slides of animal tissues.

[6] = Side effects of S-allyl-L-cysteine
Text: Cyclosporine or prednisolone, which are […] used to treat colitis thanks to their immunosuppressive effects, are reported to have the side effect of weight gain.
The anti-inflammatory agents including mesalizine or mesalazine, NSAIDs, etc. are known to cause various side effects such as hypersensitive reactions, nausea, vomiting, headache, etc.

SMILES: C=CCSC[C@H](N)C(=O)O [Example 1, S-allyl-L-cysteine]
- Body weight (mean ± standard deviation) ([1]; G3, Ex. 1 12.5 mg/kg, 2012.01.12, at the time of DSS treatment, 12.5 mg/kg): 22.1 ± 2.4 g
- Body weight (mean ± standard deviation) ([1]; G3, Ex. 1 12.5 mg/kg, 2012.01.18, at autopsy after 7 days DSS 2.5 wt %, 12.5 mg/kg): 20.3 ± 2.2 g
- Body weight (mean ± standard deviation) ([1]; G4, Ex. 1 25 mg/kg, 2012.01.12, at the time of DSS treatment, 25 mg/kg): 22.8 ± 0.8 g
- Body weight (mean ± standard deviation) ([1]; G4, Ex. 1 25 mg/kg, 2012.01.18, at autopsy after 7 days DSS 2.5 wt %, 25 mg/kg): 20.5 ± 0.9 g
- Body weight (mean ± standard deviation) ([1]; G5, Ex. 1 50 mg/kg, 2012.01.12, at the time of DSS treatment, 50 mg/kg): 22.9 ± 1.1 g
- Body weight (mean ± standard deviation) ([1]; G5, Ex. 1 50 mg/kg, 2012.01.18, at autopsy after 7 days DSS 2.5 wt %, 50 mg/kg): 21.4 ± 0.8 g
- Body weight (mean ± standard deviation) ([1]; G6, Ex. 1 100 mg/kg, 2012.01.12, at the time of DSS treatment, 100 mg/kg): 22.2 ± 1.3 g
- Body weight (mean ± standard deviation) ([1]; G6, Ex. 1 100 mg/kg, 2012.01.18, at autopsy after 7 days DSS 2.5 wt %, 100 mg/kg): 21.6 ± 0.7 g
- Therapeutic effects (DAI, colon length) compared with conventional agent (G7) ([2]; G3 to G6 (12.5-100 mg/kg) vs G7 (Control 50 mg/kg)): equivalent to or higher than those of the conventional agent
- Disease Activity Index (DAI) score ([2]; G3 to G6 (12.5-100 mg/kg), DSS 2.5 wt %, end of test, FIG. 3): score low in DAI
- Colon length [3]: recovered the colon length
- Rehabilitation of mucosal tissues by total pathologic score ([4]; G3 (12.5 mg/kg), FIG. 6): best rehabilitation of mucosal tissues
- Histology of intestinal mucosa tissues (H&E) ([4]; G3 to G6 (12.5-100 mg/kg), FIG. 5): recovered the intestinal mucosa tissues to a normal state
- Total pathologic score (H&E) ([4]; G3 to G6 (12.5-100 mg/kg), FIG. 6): lowered the pathologic score
- Therapeutic effect (pathologic score) compared with control G7 ([4]; G3 to G6 vs G7 (Control 50 mg/kg)): equivalent to or higher than that of the control G7
- Expression level of IL-1β (IL-1β): decreased expression levels
- Expression level of IL-6 (IL-6): decreased expression levels
- Expression level of TNF-α (TNF-α): decreased expression levels
- Expression level of IL-12 (IL-12): decreased expression levels
- Amount of malondialdehyde (MDA) (Malondialdehyde (MDA); G3 and G4 (12.5 and 25 mg/kg), with statistical significance): decrease
- Level of MDA (Malondialdehyde (MDA); G3 to G6 (12.5-100 mg/kg), equivalency or superiority to control G7): decreased the level of MDA
- Total antioxidant concentration in tissues [5]: increase in antioxidant concentration
- COX-2 expression level (COX-2; G3 (12.5 mg/kg)): significantly increased
- COX-2 expression levels in mucosal tissues (COX-2; G3 to G6 (12.5-100 mg/kg), immunofluorescence, FIG. 13): reduced COX-2 expression levels
- COX-2 expression in the fascial tissue (COX-2; G4 to G6 (25-100 mg/kg), immunofluorescence): inhibited COX-2 expression even in the fascial tissue
- COX-2 expression level (COX-2; other test groups (G4 to G6, 25-100 mg/kg)): significantly decrease
- Side effect of weight gain ([6]; G3 to G6 (12.5-100 mg/kg)): not cause the side effect of weight gain
- Side effects (hypersensitive reactions, nausea, vomiting, headache, etc.) ([6]; G3 to G6, extended test period of 12 weeks): did not suffer from the side effects

SMILES: O=C(NC(Cc1cc(=O)[nH]c2ccccc12)C(=O)O)c1ccc(Cl)cc1 (stereo not drawn) [Control, Rebamipide, reference compound]
- Body weight (mean ± standard deviation) ([1]; G7, Control 50 mg/kg, 2012.01.12, at the time of DSS treatment): 23.2 ± 1.2 g
- Body weight (mean ± standard deviation) ([1]; G7, Control 50 mg/kg, 2012.01.18, at autopsy after 7 days DSS 2.5 wt %): 21.1 ± 0.9 g
- COX-2 expression in the fascial tissue beneath the mucosal tissue (COX-2; G7 (Control 50 mg/kg), immunofluorescence): did not effectively do so
- COX-2 expression in mucosal tissues (COX-2; G7 (Control 50 mg/kg), immunofluorescence, FIG. 13): inhibited COX-2 expression in mucosal tissues
- Side effects (hypersensitive reactions, nausea, vomiting, headache, etc.) ([6]; control G7, extended test period of 12 weeks): side effects detected

Reference: patent publication US20150147411A1, “COMPOSITION FOR PREVENTING OR TREATING COLITIS COMPRISING S-ALLYL-L-CYSTEINE AS ACTIVE INGREDIENT, AND MEDICAL PREPARATION COMPRISING SAME” (PHARMAKING CO., LTD., priority 2012, published 2015)
